Assays:
Assay type in all cases: in vivo
[1] = system: Italian ryegrass (Lolium multiflorum); test: Test B pre-/postemergence plant response
Method in brief: (§1)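 Steps: sow seed in loam–sand soil and spray preemergence, or grow plants in peat-based medium to 1–4 leaves (2–18 cm) and spray postemergence; formulation is non-phytotoxic solvent plus surfactant; hold in greenhouse 13–15 days; score visually vs controls, 0 = no effect, 100 = complete control.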

[2] = system: bermudagrass (Cynodon dactylon); test: Test B pre-/postemergence plant response
Method in brief: as §1

[3] = system: blackgrass (Alopecurus myosuroides); test: Test B pre-/postemergence plant response
Method in brief: as §1

corn (Zea mays) = test: Test B pre-/postemergence plant response
Method in brief: as §1

[4] = system: downy bromegrass (Bromus tectorum); test: Test B pre-/postemergence plant response
Method in brief: as §1

[5] = system: giant foxtail (Setaria faberii); test: Test B pre-/postemergence plant response
Method in brief: as §1

[6] = system: goosegrass (Eleusine indica); test: Test B pre-/postemergence plant response
Method in brief: as §1

[7] = system: green foxtail (Setaria viridis); test: Test B pre-/postemergence plant response
Method in brief: as §1

[8] = system: johnsongrass (Sorghum halepense); test: Test B pre-/postemergence plant response
Method in brief: as §1

[9] = system: morningglory (Ipomoea coccinea); test: Test B pre-/postemergence plant response
Method in brief: as §1

[10] = system: pigweed (Amaranthus retroflexus); test: Test B pre-/postemergence plant response
Method in brief: as §1

[11] = system: ragweed (common ragweed, Ambrosia elatior); test: Test B pre-/postemergence plant response
Method in brief: as §1

soybean (Glycine max) = test: Test B pre-/postemergence plant response
Method in brief: as §1

[12] = system: velvetleaf (Abutilon theophrasti); test: Test B pre-/postemergence plant response
Method in brief: as §1

[13] = system: wheat (Triticum aestivum); test: Test B pre-/postemergence plant response
Method in brief: as §1

[14] = system: canarygrass (Phalaris minor); test: Test B postemergence plant response
Method in brief: (§2)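 Visual ratings from 0 (no effect) to 100 (complete control), made against controls 13–15 days after treatment, kept in a greenhouse. Compounds were applied postemergence to potted plants at the 1- to 4-leaf stage (2–18 cm).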

[15] = system: chickweed (Stellaria media); test: Test B postemergence plant response
Method in brief: as §2

[16] = system: winter barley (Hordeum vulgare); test: Test B postemergence plant response
Method in brief: as §2

[17] = 31 g ai/ha, postemergence, scale 0 to 100, 0 is no effect, 100 is complete control
[18] = 250 g ai/ha, Preemergence, 0 to 100 scale
[19] = Postemergence, 62 g ai/ha, scale 0 (no effect) to 100 (complete control), 13 to 15 days
[20] = Postemergence, 125 g ai/ha, visual rating after 13 to 15 days, scale 0 (no effect) to 100 (complete control)
[21] = Postemergence, 250 g ai/ha, scale 0 to 100 (0 no effect, 100 complete control)
[22] = Preemergence, 31 g ai/ha, scale 0 to 100 (0 no effect, 100 complete control)
[23] = Preemergence, 125 g ai/ha, 0 to 100 scale
[24] = Preemergence, 62 g ai/ha, scale 0 to 100, 0 no effect, 100 complete control

Structure (SMILES): CCCn1c(-c2ccccc2)ncc(C(=O)C2=C(O)CCCC2=O)c1=O [Compound 50]
- Plant response rating, Ryegrass, Italian [1, 17]: 0
- Plant response rating, Ryegrass, Italian [1, 18]: 0
- Plant response rating, Ryegrass, Italian [1, 19]: 0
- Plant response rating, Ryegrass, Italian [1, 20]: 0
- Plant response rating, Ryegrass, Italian [1, 21]: 0
- Plant response rating, Ryegrass, Italian [1, 22]: 0
- Ryegrass, Italian plant response rating [1, 23]: 0
- Plant response rating, Bermudagrass [2, 17]: 90
- Plant response rating, Bermudagrass [2, 18]: 100
- Plant response rating, Bermudagrass [2, 19]: 100
- Plant response rating, Bermudagrass [2, 20]: 100
- Plant response rating, Bermudagrass [2, 21]: 100
- Plant response rating, Bermudagrass [2, 22]: 100
- Plant response rating, Bermudagrass [2, 24]: 100
- Bermudagrass plant response rating [2, 23]: 100
- Plant response rating, Blackgrass [3, 17]: 5
- Plant response rating, Blackgrass [3, 18]: 5
- Plant response rating, Blackgrass [3, 19]: 5
- Plant response rating, Blackgrass [3, 20]: 5
- Plant response rating, Blackgrass [3, 21]: 15
- Plant response rating, Blackgrass [3, 22]: 0
- Plant response rating, Blackgrass [3, 24]: 0
- Blackgrass plant response rating [3, 23]: 0
- Plant response rating, Corn (corn (Zea mays); [17]): 5
- Plant response rating, Corn (corn (Zea mays); [18]): 0
- Plant response rating, Corn (corn (Zea mays); [19]): 10
- Plant response rating, Corn (corn (Zea mays); [20]): 25
- Plant response rating, Corn (corn (Zea mays); [21]): 25
- Plant response rating, Corn (corn (Zea mays); [22]): 0
- Plant response rating, Corn (corn (Zea mays); [24]): 0
- Corn plant response rating (corn (Zea mays); [23]): 0
- Plant response rating, Bromegrass, Downy [4, 17]: 0
- Plant response rating, Bromegrass, Downy [4, 18]: 0
- Plant response rating, Bromegrass, Downy [4, 19]: 5
- Plant response rating, Bromegrass, Downy [4, 20]: 20
- Plant response rating, Bromegrass, Downy [4, 21]: 20
- Plant response rating, Bromegrass, Downy [4, 22]: 0
- Plant response rating, Bromegrass, Downy [4, 24]: 0
- Bromegrass, Downy plant response rating [4, 23]: 0
- Plant response rating, Foxtail, Giant [5, 17]: 75
- Plant response rating, Foxtail, Giant [5, 18]: 90
- Plant response rating, Foxtail, Giant [5, 19]: 85
- Plant response rating, Foxtail, Giant [5, 20]: 95
- Plant response rating, Foxtail, Giant [5, 21]: 95
- Plant response rating, Foxtail, Giant [5, 22]: 45
- Plant response rating, Foxtail, Giant [5, 24]: 75
- Foxtail, Giant plant response rating [5, 23]: 90
- Plant response rating, Goosegrass [6, 17]: 75
- Plant response rating, Goosegrass [6, 18]: 100
- Plant response rating, Goosegrass [6, 19]: 80
- Plant response rating, Goosegrass [6, 20]: 90
- Plant response rating, Goosegrass [6, 21]: 90
- Plant response rating, Goosegrass [6, 22]: 95
- Goosegrass plant response rating [6, 23]: 100
- Plant response rating, Foxtail, Green [7, 17]: 80
- Plant response rating, Foxtail, Green [7, 18]: 100
- Plant response rating, Foxtail, Green [7, 19]: 80
- Plant response rating, Foxtail, Green [7, 20]: 95
- Plant response rating, Foxtail, Green [7, 21]: 95
- Plant response rating, Foxtail, Green [7, 22]: 50
- Plant response rating, Foxtail, Green [7, 24]: 50
- Foxtail, Green plant response rating [7, 23]: 95
- Plant response rating, Johnsongrass [8, 17]: 0
- Plant response rating, Johnsongrass [8, 18]: 95
- Plant response rating, Johnsongrass [8, 19]: 10
- Plant response rating, Johnsongrass [8, 20]: 65
- Plant response rating, Johnsongrass [8, 21]: 70
- Plant response rating, Johnsongrass [8, 22]: 0
- Plant response rating, Johnsongrass [8, 24]: 20
- Johnsongrass plant response rating [8, 23]: 90
- Plant response rating, Morningglory [9, 17]: 10
- Plant response rating, Morningglory [9, 18]: 55
- Plant response rating, Morningglory [9, 19]: 25
- Plant response rating, Morningglory [9, 20]: 70
- Plant response rating, Morningglory [9, 21]: 80
- Plant response rating, Morningglory [9, 22]: 0
- Plant response rating, Morningglory [9, 24]: 0
- Plant response rating, Pigweed [10, 17]: 80
- Plant response rating, Pigweed [10, 18]: 100
- Plant response rating, Pigweed [10, 19]: 98
- Plant response rating, Pigweed [10, 20]: 100
- Plant response rating, Pigweed [10, 21]: 100
- Plant response rating, Pigweed [10, 22]: 90
- Pigweed plant response rating [10, 23]: 100
- Plant response rating, Ragweed [11, 17]: 80
- Plant response rating, Ragweed [11, 18]: 100
- Plant response rating, Ragweed [11, 19]: 90
- Plant response rating, Ragweed [11, 20]: 98
- Plant response rating, Ragweed [11, 21]: 98
- Plant response rating, Ragweed [11, 22]: 75
- Ragweed plant response rating [11, 23]: 95
- Plant response rating, Soybean (soybean (Glycine max); [17]): 85
- Plant response rating, Soybean (soybean (Glycine max); [18]): 0
- Plant response rating, Soybean (soybean (Glycine max); [19]): 85
- Plant response rating, Soybean (soybean (Glycine max); [20]): 95
- Plant response rating, Soybean (soybean (Glycine max); [21]): 95
- Plant response rating, Soybean (soybean (Glycine max); [22]): 0
- Plant response rating, Velvetleaf [12, 17]: 90
- Plant response rating, Velvetleaf [12, 18]: 100
- Plant response rating, Velvetleaf [12, 19]: 98
- Plant response rating, Velvetleaf [12, 20]: 98
- Plant response rating, Velvetleaf [12, 21]: 100
- Plant response rating, Velvetleaf [12, 22]: 85
- Velvetleaf plant response rating [12, 23]: 100
- Plant response rating, Wheat [13, 17]: 0
- Plant response rating, Wheat [13, 18]: 0
- Plant response rating, Wheat [13, 19]: 5
- Plant response rating, Wheat [13, 20]: 5
- Plant response rating, Wheat [13, 21]: 15
- Plant response rating, Wheat [13, 22]: 0
- Wheat plant response rating [13, 23]: 0
- Plant response rating, Canarygrass [14, 17]: 0
- Plant response rating, Canarygrass [14, 19]: 0
- Plant response rating, Canarygrass [14, 20]: 5
- Plant response rating, Canarygrass [14, 21]: 5
- Plant response rating, Chickweed [15, 17]: 80
- Plant response rating, Chickweed [15, 19]: 80
- Plant response rating, Chickweed [15, 20]: 98
- Plant response rating, Chickweed [15, 21]: 98
- Plant response rating, Barley [16, 17]: 0
- Plant response rating, Barley [16, 19]: 0
- Plant response rating, Barley [16, 20]: 5
- Plant response rating, Barley [16, 21]: 5
